Columns and labels:
dengue virus type 1 [1] = test: Antiviral activity against Dengue virus 1 2402 infected in BHK21 cells after 48 hrs by CFI assay; format: functional, organism-based; conditions: Dengue virus, 2402, BHK-21, 48 h
dengue virus type 3 [2] = test: Antiviral activity against Dengue virus 3 863 infected in BHK21 cells after 48 hrs by CFI assay; format: functional, organism-based; conditions: Dengue virus, 863, BHK-21, 48 h
dengue virus type 2 [3] = test: Antiviral activity against Dengue virus 2 3295 infected in BHK21 cells after 48 hrs by CFI assay; format: functional, organism-based; conditions: Dengue virus, 3295, BHK-21, 48 h
dengue virus type 4 [4] = test: Antiviral activity against Dengue virus 4 2270 infected in BHK21 cells after 48 hrs by CFI assay; format: functional, organism-based; conditions: Dengue virus, 2270, BHK-21, 48 h
dengue virus type 2 [5] = test: Antiviral activity against Dengue virus 2 infected in human Huh7 cells assessed as reduction in viral replication after 48 hrs by plaque assay; format: functional, organism-based; conditions: Huh-7, 48 h
dengue virus type 3 [6] = test: Antiviral activity against Dengue virus 3 infected in human Huh7 cells assessed as reduction in viral replication after 48 hrs by plaque assay; format: functional, organism-based; conditions: Huh-7, 48 h
dengue virus type 4 [7] = test: Antiviral activity against Dengue virus 4 infected in human Huh7 cells assessed as reduction in viral replication after 48 hrs by plaque assay; format: functional, organism-based; conditions: Huh-7, 48 h
dengue virus type 1 [8] = test: Antiviral activity against Dengue virus 1 infected in human Huh7 cells assessed as reduction in viral replication after 48 hrs by plaque assay; format: functional, organism-based; conditions: Huh-7, 48 h
Genome polyprotein [9] = biological target: T1, Genome polyprotein (dengue virus type 2, UniProt P29990); test: Mixed noncompetitive inhibition of the Dengue virus 2 NS2B-NS3 protease expressed in Escherichia coli using Boc-GRR-AMC as substrate assessed as enzyme-inhibitor complex after 30 mins by spectrofluorometry
Genome polyprotein [10] = biological target: T1, Genome polyprotein; test: Mixed noncompetitive inhibition of the Dengue virus 2 NS2B-NS3 protease expressed in Escherichia coli using Boc-GRR-AMC as substrate assessed as enzyme-substrate-inhibitor complex after 30 mins by Michaelis-Menten plot analysis
[11] = Oral bioavailability in Balb/c mouse at 200 mg/kg after 5 mins to 48 hrs by LC-MS/MS analysis; format: ADME, organism-based; conditions: in vivo
dengue virus type 2 [12] = test: Antiviral activity against Dengue virus 2 NGC infected in african green monkey Vero cells assessed as reduction in viral titer preincubated for 1 hr followed by viral infection measured after 5 days by plaque assay; format: functional, organism-based
[13] = Cytotoxicity against african green monkey Vero cells; format: cell-based; conditions: chlorocebus sabaeus
dengue virus type 1 [14] = test: Antiviral activity against Dengue virus 1 Western Pacific 74 infected in african green monkey Vero cells assessed as reduction in viral replication after 48 hrs by luciferase reporter gene assay; format: functional, organism-based; conditions: Western Pacific 74, Vero
West Nile virus = test: Antiviral activity against West Nile virus 3356 infected in african green monkey Vero cells assessed as reduction in viral titer after 42 hrs by plaque assay; format: functional, organism-based; conditions: West Nile virus, 3356, Vero
[15] = Cytotoxicity against BHK21 cells after 24 hrs by CellTiter-Glo luminescent assay; format: cell-based, Mesocricetus auratus, BHK-21; conditions: hamster
dengue virus type 2 [16] = test: Antiviral activity against Dengue virus 2 infected in BHK21 cells assessed after 3 to 5 days by crystal violet staining based plaque assay; format: functional, organism-based; conditions: BHK-21
dengue virus type 2 [17] = test: Antiviral activity against Dengue virus 2 infected in BHK21 cells assessed as reduction in virus replication after 24 hrs by renilla luciferase reporter gene assay; format: functional, organism-based; conditions: BHK-21, 24 h
dengue virus type 1 [18] = test: Antiviral activity against Dengue virus 1 infected in human PBMC assessed as reduction in viral titer after 48 hrs preincubated with cells prior to ADE-mediated viral infection by plaque assay; format: functional, organism-based
[19] = Inhibition of biotinylated Imp-alpha/beta1 (unknown origin) binding to Dengue virus NS5 by alpha screen assay; set-up: species or system Homo sapiens
Nonstructural protein 5 = Nonstructural protein 5 (Dengue virus, UniProt V5TFZ2); test: Inhibition of N-terminal GST tagged recombinant Dengue virus 3 2'-O methyltransferase expressed in Escherichia coli BL21 cells by scintillation counting analysis; set-up: species or system dengue virus type 3
[20] = Inhibition of N-terminal GST tagged recombinant Dengue virus 3 N-7 methyltransferase expressed in Escherichia coli BL21 cells by scintillation counting analysis; set-up: species or system dengue virus type 3
dengue virus type 2 [21] = test: Antiviral activity against Dengue virus 2 NGC infected in african green monkey Vero cells assessed as reduction in viral titer at 6 uM after 44 hrs relative to control; format: functional
dengue virus type 2 [22] = test: Antiviral activity against Dengue virus 2 NGC infected in african green monkey Vero cells assessed as reduction in viral titer at 17 uM after 44 hrs relative to control; format: functional

T1 sequence (P29990 1346-1475 limits assumed): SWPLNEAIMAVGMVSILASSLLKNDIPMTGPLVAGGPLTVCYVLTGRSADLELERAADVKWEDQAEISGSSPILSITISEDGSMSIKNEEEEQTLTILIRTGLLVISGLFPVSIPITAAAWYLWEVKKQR
T1 sequence (P29990 1476-2093 limits assumed): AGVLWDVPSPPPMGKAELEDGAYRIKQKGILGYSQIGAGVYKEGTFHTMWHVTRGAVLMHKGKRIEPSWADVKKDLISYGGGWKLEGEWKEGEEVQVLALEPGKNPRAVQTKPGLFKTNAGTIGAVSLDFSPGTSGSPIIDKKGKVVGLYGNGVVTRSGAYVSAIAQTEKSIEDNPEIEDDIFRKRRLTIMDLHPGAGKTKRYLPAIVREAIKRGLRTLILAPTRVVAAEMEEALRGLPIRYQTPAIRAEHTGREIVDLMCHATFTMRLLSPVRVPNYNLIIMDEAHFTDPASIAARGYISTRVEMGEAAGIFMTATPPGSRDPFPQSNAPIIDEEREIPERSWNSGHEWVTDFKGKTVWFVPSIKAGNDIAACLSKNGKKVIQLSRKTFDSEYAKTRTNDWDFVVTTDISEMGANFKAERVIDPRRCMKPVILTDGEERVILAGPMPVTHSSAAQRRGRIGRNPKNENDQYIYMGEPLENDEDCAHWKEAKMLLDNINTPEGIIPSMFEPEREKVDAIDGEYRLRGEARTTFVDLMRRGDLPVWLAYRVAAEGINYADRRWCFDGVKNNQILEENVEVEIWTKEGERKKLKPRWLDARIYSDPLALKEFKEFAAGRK
Sequence of Nonstructural protein 5 (V5TFZ2 whole entry): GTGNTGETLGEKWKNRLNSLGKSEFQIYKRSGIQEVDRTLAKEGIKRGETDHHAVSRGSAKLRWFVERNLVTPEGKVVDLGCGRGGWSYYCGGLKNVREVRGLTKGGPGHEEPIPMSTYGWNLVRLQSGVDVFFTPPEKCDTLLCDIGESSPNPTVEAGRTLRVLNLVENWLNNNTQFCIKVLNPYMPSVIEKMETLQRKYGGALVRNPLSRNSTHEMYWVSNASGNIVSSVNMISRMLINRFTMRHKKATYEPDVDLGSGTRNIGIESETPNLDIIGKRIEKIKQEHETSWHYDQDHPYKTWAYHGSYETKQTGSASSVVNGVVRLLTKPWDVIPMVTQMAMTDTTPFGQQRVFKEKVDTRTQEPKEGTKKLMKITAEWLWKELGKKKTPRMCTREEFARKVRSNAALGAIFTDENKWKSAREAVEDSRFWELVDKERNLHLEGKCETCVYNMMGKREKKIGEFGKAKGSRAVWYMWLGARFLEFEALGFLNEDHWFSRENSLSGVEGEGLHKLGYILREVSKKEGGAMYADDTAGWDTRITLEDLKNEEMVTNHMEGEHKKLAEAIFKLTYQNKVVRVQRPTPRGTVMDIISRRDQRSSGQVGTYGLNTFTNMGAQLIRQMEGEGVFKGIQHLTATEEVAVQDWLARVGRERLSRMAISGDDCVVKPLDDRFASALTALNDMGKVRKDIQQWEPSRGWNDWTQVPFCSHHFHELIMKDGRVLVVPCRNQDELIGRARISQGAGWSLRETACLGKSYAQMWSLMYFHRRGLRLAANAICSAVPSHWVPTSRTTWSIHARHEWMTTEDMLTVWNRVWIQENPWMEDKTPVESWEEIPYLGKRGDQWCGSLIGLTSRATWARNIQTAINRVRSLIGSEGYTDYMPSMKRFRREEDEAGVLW

CCCC(=O)O[C@H]1CN2CC[C@H](O)[C@@H]2[C@@H](O)[C@@H]1O [CELGOSIVIR]
EC50 (dengue virus type 1 [1]): 0.22 to 0.68 µM
EC50 (dengue virus type 3 [2]): 0.22 to 0.68 µM
EC50 (dengue virus type 2 [3]): 0.2 µM
EC50 (dengue virus type 4 [4]): 0.22 to 0.68 µM

CC(=O)O[C@H]1C[C@H](O[C@H]2[C@@H](O)C[C@H](O[C@H]3[C@@H](O)C[C@H](O[C@H]4CC[C@@]5(C)[C@H](CC[C@@H]6[C@@H]5C[C@@H](O)[C@]5(C)[C@@H](C7=CC(=O)OC7)CC[C@]65O)C4)O[C@@H]3C)O[C@@H]2C)O[C@H](C)[C@H]1O[C@@H]1O[C@H](CO)[C@@H](O)[C@H](O)[C@H]1O [LANATOSIDE C]
IC50 (dengue virus type 2 [5]): 0.5 to 1 µM
IC50 (dengue virus type 3 [6]): 0.5 to 1 µM
IC50 (dengue virus type 4 [7]): 0.5 to 1 µM
IC50 (dengue virus type 1 [8]): 0.5 to 1 µM

O=C1Cc2ccc(F)cc2C[C@@H]1C1=Cc2ccc(F)cc2CC1
Ki (Genome polyprotein [9]): 7 µM
Ki (Genome polyprotein [10]): 15 µM

COCCCCCCCCCN1C[C@H](O)[C@@H](O)[C@H](O)[C@H]1CO
bioavailability [11]: 84%
EC50 (dengue virus type 2 [12]): 17 µM
CC50 [13]: > 500 µM

O=C(c1ccccc1)N1N=C(c2cccs2)CC1c1ccc(Cl)cc1 (centres undefined)
EC50 (dengue virus type 1 [14]): 17 µM
EC50 (West Nile virus): 28 µM

CCN(CC)Cc1cc(Nc2ccnc3cc(Cl)ccc23)ccc1O [AMODIAQUINE]
CC50 at 24 h [15]: 52.1 µM
EC50 (dengue virus type 2 [16]): 1.08 µM
EC50 (dengue virus type 2 [17]): 7.41 µM

CC1=C(/C=C/C(C)=C/C=C/C(C)=C/C(=O)Nc2ccc(O)cc2)C(C)(C)CCC1 [FENRETINIDE]
EC50 (dengue virus type 1 [18]): 0.8 to 2.6 µM
IC50 [19]: 1 to 1.5 µM

N[C@@H](CCSC[C@H]1O[C@@H](n2cnc3c(NCc4cccc(Cl)c4)ncnc32)[C@H](O)[C@@H]1O)C(=O)O
Ki (Nonstructural protein 5): 0.17 µM
Ki [20]: 0.82 µM

O=C(Nc1cccc(Cn2cc(-c3cccc(S(=O)(=O)Nc4ccccc4C(=O)O)c3)cn2)c1)c1ccc(C(=O)c2ccccc2)cc1
fold change (FC) (dengue virus type 2 [21]): 3.4
fold change (FC) (dengue virus type 2 [22]): 4.5

Source: ChEMBL document CHEMBL4431301, “The Medicinal Chemistry of Dengue Virus” (J Med Chem, 2016)
